The NIST ThermoML archive (doi:10.1007/s10765-010-0766-0)
Several values for one entry are separate records, joined by “and”; a condition that tells them apart may be missing. Identical values can stand only once.

Details: Liquid, Pycnometric method

FC(F)C(F)(F)OCC(F)(F)F [2,2,2-trifluoroethyl 1,1,2,2-tetrafluoroethyl ether]
Details | mass density
342.15 K, 16809 kPa | 1418.3 kg/m3
342.15 K, 16812 kPa | 1418.3 kg/m3
343.15 K, 17505 kPa | 1418.1 kg/m3
343.15 K, 17508 kPa | 1418.1 kg/m3
344.15 K, 18201 kPa | 1418 kg/m3
344.15 K, 18203 kPa | 1418 kg/m3
345.15 K, 18896 kPa | 1417.8 kg/m3
345.15 K, 18898 kPa | 1417.8 kg/m3
346.15 K, 19590 kPa | 1417.7 kg/m3
346.15 K, 19592 kPa | 1417.7 kg/m3
347.15 K, 20282 kPa | 1417.5 kg/m3
347.15 K, 20287 kPa | 1417.6 kg/m3
348.15 K, 20974 kPa | 1417.4 kg/m3
348.15 K, 20978 kPa | 1417.4 kg/m3
349.15 K, 21666 kPa | 1417.3 kg/m3
349.15 K, 21671 kPa | 1417.3 kg/m3
350.15 K, 22357 kPa | 1417.1 kg/m3
350.15 K, 22360 kPa | 1417.2 kg/m3
351.15 K, 23047 kPa | 1417 kg/m3
351.15 K, 23050 kPa | 1417 kg/m3
352.15 K, 23735 kPa | 1416.9 kg/m3
352.15 K, 23739 kPa | 1416.9 kg/m3
353.15 K, 24423 kPa | 1416.8 kg/m3
353.15 K, 24426 kPa | 1416.8 kg/m3
354.15 K, 25110 kPa | 1416.6 kg/m3
354.15 K, 25114 kPa | 1416.7 kg/m3
355.15 K, 25797 kPa | 1416.5 kg/m3
355.15 K, 25801 kPa | 1416.5 kg/m3
356.15 K, 26482 kPa | 1416.4 kg/m3
356.15 K, 26486 kPa | 1416.4 kg/m3
357.15 K, 27166 kPa | 1416.3 kg/m3
357.15 K, 27171 kPa | 1416.3 kg/m3
358.15 K, 27851 kPa | 1416.2 kg/m3
358.15 K, 27855 kPa | 1416.2 kg/m3
359.15 K, 5632 kPa | 1334.4 kg/m3
359.15 K, 5637 kPa | 1334.4 kg/m3
359.15 K, 28535 kPa | 1416.1 kg/m3
359.15 K, 28538 kPa | 1416.1 kg/m3
360.15 K, 6174 kPa | 1334.2 kg/m3
360.15 K, 6180 kPa | 1334.2 kg/m3
360.15 K, 29217 kPa | 1415.9 kg/m3
360.15 K, 29220 kPa | 1416 kg/m3
361.15 K, 6718 kPa | 1334.1 kg/m3
361.15 K, 6724 kPa | 1334.1 kg/m3
361.15 K, 29899 kPa | 1415.8 kg/m3
361.15 K, 29902 kPa | 1415.9 kg/m3
362.15 K, 7261 kPa | 1333.9 kg/m3
362.15 K, 7266 kPa | 1333.9 kg/m3
363.15 K, 7803 kPa | 1333.8 kg/m3
363.15 K, 7809 kPa | 1333.8 kg/m3
364.15 K, 8346 kPa | 1333.6 kg/m3
364.15 K, 8350 kPa | 1333.6 kg/m3
365.15 K, 8888 kPa | 1333.5 kg/m3
365.15 K, 8892 kPa | 1333.5 kg/m3
366.15 K, 9430 kPa | 1333.3 kg/m3
366.15 K, 9434 kPa | 1333.4 kg/m3
367.15 K, 9971 kPa | 1333.2 kg/m3
367.15 K, 9976 kPa | 1333.2 kg/m3
368.15 K, 10512 kPa | 1333.1 kg/m3
368.15 K, 10516 kPa | 1333.1 kg/m3
369.15 K, 11053 kPa | 1332.9 kg/m3
369.15 K, 11057 kPa | 1332.9 kg/m3
370.15 K, 11593 kPa | 1332.8 kg/m3
370.15 K, 11598 kPa | 1332.8 kg/m3
371.15 K, 12133 kPa | 1332.7 kg/m3
371.15 K, 12137 kPa | 1332.7 kg/m3
372.15 K, 12673 kPa | 1332.5 kg/m3
372.15 K, 12677 kPa | 1332.6 kg/m3
373.15 K, 13212 kPa | 1332.4 kg/m3
373.15 K, 13216 kPa | 1332.4 kg/m3
374.15 K, 13752 kPa | 1332.3 kg/m3
374.15 K, 13756 kPa | 1332.3 kg/m3
375.15 K, 14290 kPa | 1332.2 kg/m3
375.15 K, 14294 kPa | 1332.2 kg/m3
376.15 K, 14828 kPa | 1332 kg/m3
376.15 K, 14831 kPa | 1332 kg/m3
377.15 K, 15366 kPa | 1331.9 kg/m3
377.15 K, 15369 kPa | 1331.9 kg/m3
378.15 K, 15904 kPa | 1331.8 kg/m3
378.15 K, 15906 kPa | 1331.8 kg/m3
379.15 K, 16441 kPa | 1331.7 kg/m3
379.15 K, 16443 kPa | 1331.7 kg/m3
380.15 K, 16977 kPa | 1331.5 kg/m3
380.15 K, 16980 kPa | 1331.5 kg/m3
381.15 K, 17514 kPa | 1331.4 kg/m3
381.15 K, 17515 kPa | 1331.4 kg/m3
382.15 K, 18050 kPa | 1331.3 kg/m3
382.15 K, 18051 kPa | 1331.3 kg/m3
383.15 K, 18585 kPa | 1331.2 kg/m3
383.15 K, 18586 kPa | 1331.2 kg/m3
384.15 K, 19120 kPa | 1331.1 kg/m3
384.15 K, 19121 kPa | 1331.1 kg/m3
385.15 K, 19655 kPa | 1330.9 kg/m3
385.15 K, 19656 kPa | 1330.9 kg/m3
386.15 K, 20189 kPa | 1330.8 kg/m3
387.15 K, 20723 kPa | 1330.7 kg/m3
388.15 K, 21256 kPa | 1330.6 kg/m3
389.15 K, 21789 kPa | 1330.5 kg/m3
390.15 K, 22322 kPa | 1330.4 kg/m3
391.15 K, 22854 kPa | 1330.3 kg/m3
391.15 K, 22855 kPa | 1330.3 kg/m3
392.15 K, 23385 kPa | 1330.2 kg/m3
392.15 K, 23386 kPa | 1330.2 kg/m3
393.15 K, 23917 kPa | 1330 kg/m3 and 1330.1 kg/m3
394.15 K, 24448 kPa | 1329.9 kg/m3
395.15 K, 24978 kPa | 1329.8 kg/m3
396.15 K, 25507 kPa | 1329.7 kg/m3
396.15 K, 25508 kPa | 1329.7 kg/m3
397.15 K, 26037 kPa | 1329.6 kg/m3
397.15 K, 26038 kPa | 1329.6 kg/m3
398.15 K, 26566 kPa | 1329.5 kg/m3
398.15 K, 26567 kPa | 1329.5 kg/m3
399.15 K, 27094 kPa | 1329.4 kg/m3
399.15 K, 27096 kPa | 1329.4 kg/m3
400.15 K, 27622 kPa | 1329.3 kg/m3
400.15 K, 27623 kPa | 1329.3 kg/m3
401.15 K, 28150 kPa | 1329.2 kg/m3
401.15 K, 28151 kPa | 1329.2 kg/m3
402.15 K, 28677 kPa | 1329.1 kg/m3
402.15 K, 28678 kPa | 1329.2 kg/m3
403.15 K, 29204 kPa | 1329 kg/m3
403.15 K, 29205 kPa | 1329.1 kg/m3
404.15 K, 29730 kPa | 1329 kg/m3
404.15 K, 29732 kPa | 1329 kg/m3
